For the assay, the target named is T1, USP7 C223A catalytic domain (Homo sapiens, UniProt Q93009, C223A).
T1 construct: catalytic domain (208–560) used were cloned as described; inferred from Ni-NTA purification; made in house; host or cells: E. coli BL21 (DE3)
As to the kind of experiment: Intact MS labeling of USP7 C223A catalytic domain. The assay is classed as binding. To be noted: 2.5-fold molar excess, 2 hours. The method, then:
The constructs encoding USP7 full length (amino acids 1–1102) and catalytic domain (208–560) used were cloned as described. Both constructs were overexpressed in E. coli BL21 (DE3). Cells were grown at 37 °C to an OD of 0.9, cooled to 16 °C, induced with 500 μM isopropyl-1-thio-D-galactopyranoside (IPTG), incubated overnight at 16 °C, collected by centrifugation, and stored at −80 °C. Cell pellets were sonicated in lysis buffer (25 mM Tris pH 8, 1 M NaCl, and 10 mM BME) supplemented with 10 μg/ml phenylmethanesulfonylfluoride (PMSF) and the resulting lysate was centrifuged at 30,000 xg for 40 min. Ni-NTA beads (Qiagen) were mixed with lysate supernatant for 2 hours, and washed with lysis buffer supplemented with 25 mM imidazole. The bound protein was eluted with lysis buffer supplemented with 300 mM imidazole. […]
Figure S1: Full-length recombinant purified USP7 was pre-incubated with XL041 at the indicated concentrations for the indicated times, then Ub-AMC was added and fluorescence was monitored. […]
Figure S5: MCF7 cells were transfected with the indicated pcDNA constructs for 48 hours, then treated with XL177A at the indicated concentration for 3 hours. Cells were lysed, and FLAG-USP7 target engagement was assessed with the DUB ABP HA-Ub-VS. Densitometry was performed using ImageStudio software and analyzed using Graphpad Prism. […]

Molecules are shown by their SMILES.

T1 sequence (Q93009 208-560 C223A): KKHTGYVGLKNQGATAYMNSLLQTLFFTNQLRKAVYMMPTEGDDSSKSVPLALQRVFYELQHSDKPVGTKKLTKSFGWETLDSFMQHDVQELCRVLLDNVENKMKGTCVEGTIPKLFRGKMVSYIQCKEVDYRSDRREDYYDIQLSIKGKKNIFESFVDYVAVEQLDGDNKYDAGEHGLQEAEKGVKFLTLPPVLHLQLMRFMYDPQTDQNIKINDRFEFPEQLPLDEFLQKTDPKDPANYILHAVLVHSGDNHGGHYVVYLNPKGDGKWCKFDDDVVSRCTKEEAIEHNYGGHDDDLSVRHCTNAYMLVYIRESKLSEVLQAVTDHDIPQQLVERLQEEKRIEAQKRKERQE

Consider `CN1CCN(CCC(=O)Nc2ccc3c(=O)n(CC4(O)CCN(C(=O)[C@@H](CCCNC(=O)c5ccc6c(Cl)c7c(nc6c5)CCCC7)Cc5ccccc5)CC4)cnc3c2)CC1` [XL177A], for which the “mass shift with USP7 C223A” value is “no mass shift was detected”.

Source of the values: article PMC7093416, “Selective USP7 inhibition elicits cancer cell killing through a p53-dependent mechanism” (Scientific Reports, 2020).
